According to ChEMBL document CHEMBL5303711, “ECBD screening data for assay EOS300108” (2023):
Where a name gives a salt, the structure may show the parent alone. Active and inactive are the calls of the source. No rule for the calls is given here.

Experiment: Cytotoxicity activity against human HepG2 cells assessed by CellTiter-Glo luminescent cell viability assay.
Format: toxicity, cell-based
Parameters: assay stage confirmatory assay, source tissue liver
Conditions: HepG2 cells, read-out: IC50 relative

| SMILES | CC50 |
| --- | --- |
| CO[C@H]1CC[C@H](N2C(=O)CNc3ncc(-c4ccc(C(C)(C)O)nc4)nc32)CC1 [ONATASERTIB] | 6 µM (active) |
| COc1ccc(Nc2nccc(-c3ccncc3)n2)cc1 | 4.7 µM (active) |
| COc1cc(/C=C(\C#N)C(=O)Nc2nnc(C(F)(F)F)s2)ccc1OCc1ccc(C(F)(F)F)cc1C(F)(F)F | 12 µM (active) |
| COc1ccccc1NC(=O)N1CCC(n2cnc3ccc(C)cc3c2=O)CC1 | 3.6 µM (active) |
| COc1cc(N2CCN(C)CC2)ccc1Nc1ncc2c(n1)N(C)c1ccccc1C(=O)N2 | 7.5 µM (active) |
| CC(C)n1ncc2cc(NC(=O)c3ccc(=O)n(Cc4ccccc4)n3)cnc21 | 9.2 µM (active) |
| Oc1ccc2[nH]ncc2c1Br | 7.1 µM (active) |
| COc1ccc(Nc2ssc(=O)c2Cl)cc1OC | 13.8 µM (active) |
| COC(=O)C[C@](O)(CCCC(C)(C)O)C(=O)O[C@@H]1C(OC)=C[C@]23CCCN2CCc2cc4c(cc2[C@H]13)OCO4 [OMACETAXINE MEPESUCCINATE] | 0.2 µM (active) |
| c1cc(-c2cnn3cc(-c4ccc(N5CCNCC5)cc4)cnc23)c2cccnc2c1 | 0.9 µM (active) |
| CC(C)c1noc(-c2ccc(OCC(=O)NC(C)(C)C)cc2)n1 | 8.2 µM (active) |
| CCN(c1ccccc1C)S(=O)(=O)c1cn(C)nn1 | 19.9 µM (inactive) |
| CCc1cccc(NC(=O)N2CCN(c3ccnc(N4CCCC4)n3)CC2)c1 | 13.5 µM (inactive) |
| N#Cc1ccnc(Nc2cc(C3CCN(C4COC4)CC3)cc(N3CCC(F)(F)C3)n2)c1 | 1.9 µM (active) |
| Cc1cc(N2CCC[C@H](c3c[nH]c4ncccc34)C2)n2ncnc2n1 | 8.5 µM (active) |
| CC1(C)CN2C(CS/C(=N\C3CCCCC3)NC3CCCCC3)=CSC2=N1 | 6 µM (active) |
| CCCc1cc(N2CCN(CCO)CC2)n2ncc(-c3ccccc3)c2n1 | 11.5 µM (active) |
| COc1cc(-c2ccccc2)sc1C(=O)NC1CC1 | 13.4 µM (active) |
| O=C1c2ccccc2-c2n[nH]c3cccc1c23 | 6.2 µM (active) |
| COc1cc2nc(N3CCCN(C)CC3)nc(NC3CCN(Cc4ccccc4)CC3)c2cc1OC | 0.9 µM (active) |
| CC(C)(C)N1C(=O)C(Nc2ccc(N3CCCCC3)cc2)=C(c2ccccc2)S1(=O)=O | 4.9 µM (active) |
| CC(C)c1ccc(CN2CCN(C(=O)CN(C)C(=O)c3ccco3)CC2)cc1 | 4.4 µM (active) |

| SMILES | CC50 |
| --- | --- |
| O=C(Nc1nccs1)C1=C(c2ccccc2)S(=O)(=O)CCO1 | 7.7 µM (active) |
| O=C(Cn1nnc2ccccc21)Nc1nc(-c2ccccn2)cs1 | 1.7 µM (active) |
| COc1ccc(S(=O)(=O)N2CCN(C(=O)c3ccc(-c4ccc(C(C)=O)cc4)o3)CC2)cc1OC | 8.5 µM (active) |
| COCCN1COc2c(cc(Cl)c3cccnc23)C1 | 7.5 µM (active) |
| O=C(Nc1ccnc2ccnn12)c1cc2ccccc2c(=O)[nH]1 | 0.1 µM (active) |
| Cc1cccnc1C(NC(=O)CCOc1ccccc1)C1CC1 (stereo unspecified) | 36.5 µM (inactive) |
| CNCCCN1c2ccccc2CCc2ccccc21 [DESIPRAMINE HYDROCHLORIDE] | 11.4 µM (active) |
| Cc1cc(N(C)C)nc(N2CCN(C(=O)c3ccc(C(C)(C)C)cc3)CC2)n1 | 5.1 µM (active) |
| Cc1noc(C2CN(C3CCCC3)CCCN2C(=O)c2ccccc2)n1 (stereo unspecified) | 6.6 µM (active) |
| C[C@H]1CCC/C=C\[C@@H]2C[C@H](O)C[C@H]2[C@H](O)/C=C\C(=O)O1 | < 0.1 µM (active) |
| OCCN1CCN(CCCN2c3ccccc3Sc3ccc(C(F)(F)F)cc32)CC1 [FLUPHENAZINE HYDROCHLORIDE] | 3.2 µM (active) |
| COc1ccc(C(O)CN2CCN(c3cc(C)ccc3C)CC2)cc1OC (stereo unspecified) | 10.2 µM (active) |
| CC[S+]([O-])c1nc(-c2cccc(OCc3ccccc3)c2)cc(C(F)(F)F)n1 (stereo unspecified) | 5.3 µM (active) |
| c1ccc(-n2ccc(CNc3ncnc4c3ncn4C3CC3)n2)cc1 | 9.8 µM (active) |
| CCS(=O)(=O)N1CCc2ccc(NC(=O)Nc3cccc(C#N)c3)cc21 | 5.2 µM (active) |
| CN(C)c1nc(Nc2cccc(O)c2)nc2ccccc12 | 12.7 µM (active) |
| C=CCNC1=C2C[C@@H](C)C[C@H](OC)[C@H](O)[C@@H](C)/C=C(/C)[C@H](OC(N)=O)[C@@H](OC)/C=C\C=C(\C)C(=O)NC(=CC1=O)C2=O | < 0.1 µM (active) |
| [O-][n+]1ccccc1S [PYRITHIONE] | 1.1 µM (active) |
| Cc1ccc(Cc2cnc(NC(=O)NC[C@H](C)CN3CCN(C)CC3)s2)cc1 | 7.6 µM (active) |
| COc1cccc(C(=O)Nc2ncc(Cc3cccc(C(F)(F)F)c3)s2)c1 | 8 µM (active) |
| CNc1ncc2cc(-c3cc(NC(=O)NCCC(C)(C)C)c(F)cc3C)c(C)nc2n1 [LY-3009120] | 0.4 µM (active) |
| O=S(=O)(c1cccc2c(I)cccc12)N1CCCNCC1 | 9.7 µM (active) |
| O=C(c1ccc(Cl)cc1)N(CCCc1ccccc1)CCS(=O)(=O)N1CCNCC1 | 10.2 µM (active) |

| SMILES | CC50 |
| --- | --- |
| CCC(=O)Nc1ccc(C(=O)Cn2ncc(Cl)c(Cl)c2=O)cc1 | 3.3 µM (active) |
| Cc1cc(N2CCOCC2)cc2[nH]c(-c3c(NC[C@@H](O)c4cccc(Cl)c4)cc[nH]c3=O)nc12 | 2.3 µM (active) |
| O=C(NOCCO)c1ccc2cncn2c1Nc1ccc(I)cc1F [GDC-0623] | < 0.1 µM (active) |
| CCC(=O)Nc1cccc(Oc2nc(Nc3ccc(N4CCN(C)CC4)cc3OC)ncc2Cl)c1 | 2.8 µM (active) |
| COc1ccc(-c2cc3nccn3c(Nc3ncccc3C(N)=O)n2)cc1OC | 1.1 µM (active) |
| CC1(C)CC(Nc2ccc(Nc3ccccc3)cc2)CC(C)(C)N1 | 10.9 µM (active) |
| CCN(c1ccc(C(=O)Nc2ccccc2O)cc1)C(C)C | 11.9 µM (active) |
| NC(=O)c1cc(-c2csc(Nc3ccccc3)n2)ccc1O | 14.2 µM (inactive) |
| COc1ccc(-n2ccc(CNc3ncnc(N)c3Cl)n2)cc1 | 3.1 µM (active) |
| COc1ccc2c(c1)CN(C)CC2c1ccc(Cl)c(Cl)c1 (stereo unspecified) | 12.6 µM (active) |
| Nc1nc(NC[C@H]2CC[C@H](CNS(=O)(=O)c3cccc4ccccc34)CC2)nc2ccccc12 | 2 µM (active) |
| CNc1cccc(NC(=O)N[C@@H]2N=C(c3ccccn3)c3ccccc3N(CC(=O)C(C)(C)C)C2=O)c1 [NETAZEPIDE] | 18.4 µM (inactive) |
| Cc1cc(N)n(S(=O)(=O)c2oc(-c3ccccc3)nc2C#N)n1 | 7.6 µM (active) |
| CCc1nccn1[C@H]1CCCN(CCOc2ccc(F)cc2)C1 | 6 µM (active) |
| CS(=O)(=O)CCNCc1ccc(-c2ccc3ncnc(Nc4ccc(OCc5cccc(F)c5)c(Cl)c4)c3c2)o1 | 6.1 µM (active) |
| C[C@H]1COC2=C1C(=O)C(=O)c1c2ccc2c1CCCC2(C)C [CRYPTOTANSHINONE] | 3.1 µM (active) |
| CN(C)CCCNC(=O)c1ccc(-c2cc(O)c3ncccc3c2)cc1 | 8 µM (active) |
| O=S(=O)(C[C@H]1CCOC1)NC1CCN(Cc2ccc(Cl)cc2)CC1 | 12.9 µM (active) |
| O=S1(=O)C[C@H](NCCc2c[nH]c3ccccc23)[C@@H](S(=O)(=O)c2cccs2)C1 | 11.6 µM (inactive) |
| CC(C)(C)OC(=O)Nc1ccc(-c2cc(C(=O)NCCCCCCC(=O)NO)no2)cc1 | 0.7 µM (active) |
| CN(C)CC[C@H](CSc1ccccc1)Nc1ccc(S(=O)(=O)NC(=O)c2ccc(N3CCN(Cc4ccccc4-c4ccc(Cl)cc4)CC3)cc2)cc1[N+](=O)[O-] [ABT 737] | 13.2 µM (active) |
| Cc1cccc(NC(=O)Nc2ccc3c(c2)N(S(C)(=O)=O)CC3)c1 | 3.3 µM (active) |
| CC[C@H]1CN(c2ccccc2)CCN1c1ccnc(C(C)C)n1 | 10.7 µM (active) |

| SMILES | CC50 |
| --- | --- |
| COc1cc(C(=O)N2CCC(N3CCN(C)CC3)CC2)ccc1Nc1ncc2c(n1)N(C)c1ccccc1C(=O)N2C | 4.5 µM (active) |
| Cc1oc2c(c1C(=O)c1ccc(Cl)cc1)C(=O)C(=O)c1ccccc1-2 | 31.4 µM (inactive) |
| CN(C)c1ccc(C(O)(c2ccc(N(C)C)cc2)c2ccc(N(C)C)cc2)cc1 [METHYLROSANILINE] | 2 µM (active) |
| COc1cc(C(=O)NC2CCN(C)CC2)ccc1Nc1ncc2c(n1)N(C1CCCC1)CC(F)(F)C(=O)N2C | 2.9 µM (active) |
| CCCCNc1ncc2c(-c3ccc(CN4CCN(C)CC4)cc3)cn([C@H]3CC[C@H](O)CC3)c2n1 | 1.3 µM (active) |
| Cc1ccc(-c2noc(-c3cccc(OCC(=O)N4CCN(C)CC4)c3)n2)cc1 | 6.3 µM (active) |
| CCCn1c(NC(=O)c2cccc(S(=O)(=O)N3CCN(C(C)=O)CC3)c2)nc2ccccc21 | 8.3 µM (active) |
| COc1cc2nccc(Oc3ccc(NC(=O)Nc4cc(C)on4)c(Cl)c3)c2cc1OC [TIVOZANIB] | 6.7 µM (active) |
| Cc1nc(-c2ccccn2)[nH]c(=O)c1CC(=O)N1CCC[C@H]1C1CCCCC1 | 6.7 µM (active) |
| Oc1cccc2ccc(Nc3ccccn3)nc12 | 0.7 µM (active) |
| CC1CCN(S(=O)(=O)c2ccc(-c3nnc(C(=O)NCCCN4CCCCCC4)o3)cc2)CC1 | 15.6 µM (inactive) |
| CO[C@]1(C(=O)N[C@@H](C)c2ccc(-n3cc(F)cn3)nc2)CC[C@H](c2nc(C)cc(Nc3cc(C)[nH]n3)n2)CC1 [PRALSETINIB] | 9.3 µM (active) |
| C#Cc1cccc(Nc2ncnc3cc(OCCOC)c(OCCOC)cc23)c1 [ERLOTINIB HYDROCHLORIDE] | 3.4 µM (inactive) |
| CN(C)CCCN(CCCN(C)C)CC1=CCC2CC1C2(C)C (stereo unspecified) | 9.6 µM (active) |
| O[C@H]1CCN(Cc2csc(-c3ccoc3)n2)C12CCCC2 | 5 µM (active) |
| O=C(c1ccc(Nc2nccc(-c3cc4ccccc4s3)n2)cc1)N1CCC(N2CCCC2)CC1 | 1.3 µM (active) |
| CC(C)(C)n1c(NC(=O)c2ccncc2)nc2ccccc21 | 15.2 µM (active) |
| O=C(Nc1cccc2cccnc12)c1cn2ccccc2n1 | < 0.1 µM (active) |
| Cc1ccc2c(c1)C1(CCN(CCc3nc(-c4ccccc4)oc3C)CC1)OC(=O)N2 | 11.2 µM (active) |
| CC(C)(C)c1n[nH]c2c(-c3nc4ccccc4s3)c(N)nn2c1=O | 35.4 µM (inactive) |
| Cc1cc(OCC(O)CN2CCCCC2)cc(C)c1Cl (stereo unspecified) | 10.5 µM (active) |
| COc1ccc(C(N)=O)cc1NC(=O)c1cc(Br)c[nH]1 | 1.2 µM (active) |
